{"source": "patent US20050145258A1", "about": "“Composition, Method and Device for Blood Supply Fluctuation Therapy” (priority 2004, published 2005)", "key": {"liver cancer": {"system": "liver cancer", "type": "in vivo, human", "procedure": "The inlet tube member 2 was connected to gas resource of gaseous CO2. 500 ml of the gaseous CO2 was introduced into storing bag for cleaning the air within the storing bag and delivery system. T Stopcock 1 in inlet tube member 2 was turned off to stop the gas into storing bag temporally. The gaseous CO2 in storing bag 3 was aspirated into syringe 6, then impelled by the syringe 6. Due to the function of check valve, during the aspirating of syringe, the first check valve 5 was open; meanwhile the second and third check valves were closed automatically. The gas in the storing bag was aspirated into syringe 6. During the impelling of syringe, the first check valve was closed and the second and third check valves were open automatically. The gaseous CO2 in the syringe is impelled out of the delivery device through the outlet of the third three-way stopcock. Repeating syringe aspirating and impelling until all gas in the storing bag was emptied, and the air within storing bag and delivery device was cleaned. After that, the stopcock on the inlet tubular member was turned on again to introduce the gaseous CO2 from the gas resource into storing bag 3 to fill the storing bag (2000 ml), then the stopcock 1 was turned off to stop gaseous CO2 introduction. The gaseous CO2 and delivery system was ready for use. […] The delivery catheter 13 was connected to the outlet of the third three-way stopcock of the delivery system, and the air within the catheter 13 was removed. Using the gaseous CO2 as contrast medium, 50 ml gaseous CO2 at rate of 10 ml/second was injected by syringe 6 into the hepatic artery to perform a diagnostic DSA. The diagnostic DSA was used to identify the location, size of tumor, arteries supplying blood to liver cancer, blood flow within tumor tissue and time gaseous CO2 staying in tumor vessels. All those information was necessary to doctor to select an optimal protocol of Blood Supply Fluctuation Therapy (BSFT). Then, the angiographic catheter was advanced into the artery supplying blood flow to the liver cancer. […] Blood Supply Fluctuation Therapy (BSFT) with Gaseous CO2: gaseous CO2 was injected slowly by the delivery syringe 6 through the catheter 13 into the tumor vasculature. […] The gas displaces the blood flow within the tumor vessels partially or entirely depending on the injection rate and lasting time. With increasing of the gaseous mixture, the blood supply to the liver cancer was decreased, even stopped. Because tumor vasculature was immature, “vapor lock” in tumor vasculature was produced by the gaseous CO2. With decreasing and stopping of the blood flow of tumor vasculature, the gaseous CO2 injected through delivery catheter might overflow into the arteries supplying normal liver tissue that could be detected and monitored by X-ray fluoroscopy, DSA, CT or ultrasound imaging. Because the gaseous CO2 was absorbable in blood and could be flushed away in normal vasculature within one minute, therefore the gaseous CO2 overflowing into normal vasculature caused no damage in normal liver tissue. At this time, gaseous CO2 delivery was stopped. Due to vapor lock, there was no blood flow in tumor vasculature and no nutrition and oxygen was delivery to tumor cells, which made it under starvation and hypoxia. Meanwhile also due to the vapor lock, area of the CO2 bubbles contacting with blood was getting much smaller, which limits CO2 absorbability and prolongs CO2 gas staying within tumor vasculature. […] Under X-ray fluoroscopy, the tumor looked like a balloon filled with gas (FIG. 9). Thirty minutes after injection of CO2 about half of the gas still remained in the tumor (FIG. 10)."}, "uterine fibroids": {"system": "uterine fibroids", "experiment": "Blood supply fluctuation therapy with gaseous mixture of CO2 and nitric oxide in patients with uterine fibroids", "type": "in vivo, human", "excerpt": "Preparation of gaseous mixture of CO2 and Nitric Oxide: the preparation procedure was same as that of gaseous CO2 in example 1, except the gaseous material was not CO2, but the gaseous mixture of CO2 and Nitric Oxide (NO). The concentration of NO was present in an amount effective to prevent vasospasm and ischemia, 40 ppm here.\nSelective catheterization and diagnostic Digital Subtraction Angiogrpahy (DSA) with Gaseous Mixture of CO2 and Nitric Oxide (NO): under monitoring of X-ray fluoroscope and using interventional technique of selective catheterization, a delivery catheter was inserted into the internal iliac artery in the patients with uterine fibroids. […]\nBlood Supply Fluctuation Therapy (BSFT) with Gaseous Mixture of CO2 and Nitric Oxide (NO): gaseous mixture of CO2 and Nitric Oxide (NO) was injected slowly and intermittently by the delivery syringe through the delivery catheter into tumor vasculature at the rate of 1 ml/s and with 5 minutes interval each 20 ml injection. […] With the decreasing and stopping of the blood flow of tumor vasculature, the gaseous mixture injected through delivery catheter might overflows into the arteries supplying normal uterine wall that could be detected and monitored by X-ray fluoroscopy, DSA, CT or ultrasound imaging. […]"}}}
{"compound": "O=C=O", "note": "[CO2, carbon dioxide]", "values": [{"measurement": "CO2 bubbles in immature tumor vasculature, DSA imaging", "setting": "liver cancer; human, in vivo", "value": "filled and accumulated"}, {"measurement": "CO2 bubbles in normal liver tissue, DSA imaging", "setting": "liver cancer; human, in vivo", "value": "no bubbles accumulated"}, {"measurement": "damage in normal liver tissue", "setting": "liver cancer; human, in vivo", "value": "no damage"}, {"measurement": "discomfort felt by patients receiving the injection", "setting": "liver cancer; human, in vivo", "value": "minor discomfort on liver area"}, {"measurement": "time CO2 accumulates and stays in abnormal vasculature", "setting": "liver cancer; human, in vivo", "value": "for hours, even for days"}, {"measurement": "time to be flushed away in normal vasculature", "setting": "liver cancer; human, in vivo", "value": "one"}, {"measurement": "vapor lock in tumor vasculature", "setting": "liver cancer; repeated 50 ml injections through catheter", "value": "produced"}, {"measurement": "filling of liver tumor with CO2, X-ray", "setting": "liver cancer; tumor 7 cm in diameter, total of 500 ml CO2, 3-5 ml/s, 3-5 minutes interval each 50 ml injection", "value": "fully filled"}, {"measurement": "vapor lock in tumor vasculature, CT scan", "setting": "uterine fibroids; 45 minutes after BSFT", "value": "produced"}, {"measurement": "gas seen in normal uterine tissue, CT scan", "setting": "uterine fibroids; human, in vivo", "value": "No gas"}]}
